± gives the expanded uncertainty stated by the source.
Experiments:
[1] = Liquid; for speed of sound: 100 kPa, Frequency=3 MHz, Sing-around technique in a fixed-path interferometer; for mass density: 101.3 kPa, Vibrating tube method
[2] = refractive index (Na D-line) (dimensionless); conditions: 100 kPa, Liquid, Standard Abbe refractometry
[3] = refractive index (Na D-line) (dimensionless); xn = mol fraction of the nth substance listed; conditions: 100 kPa, Liquid, Standard Abbe refractometry, x1 = 1
[4] = xn = mol fraction of the nth substance listed; conditions: Liquid, x1 = 1; for speed of sound: 100 kPa, Frequency=3 MHz, Sing-around technique in a fixed-path interferometer; for mass density: 101.3 kPa, Vibrating tube method

CCCOCCO [2-propoxyethanol]
Conditions | mass density, [1] [kg/m3] | refractive index, [2] | speed of sound, [1] [m/s]
298.15 K | 908.31 ± 2 | 1.41255 ± 0.002 | 1299.9 ± 1.5
308.15 K | 899.5 ± 2 | 1.40814 ± 0.002 | 1265 ± 1.5
318.15 K | 890.56 ± 2 | 1.40355 ± 0.002 | 1230.1 ± 1.5
328.15 K | 881.49 ± 2 | 1.39908 ± 0.002 | 1195.8 ± 1.5

CCOS(=O)(=O)[O-].CCn1cc[n+](C)c1 [1-ethyl-3-methylimidazolium ethyl sulfate] + CCCOCCO
Conditions | mass density, [4] [kg/m3] | refractive index, [3] | speed of sound, [4] [m/s]
298.15 K | 1236.38 ± 2 | 1.47907 ± 0.002 | 1680.8 ± 1.6
308.15 K | 1229.49 ± 2 | 1.47645 ± 0.002 | 1656.4 ± 1.6
318.15 K | 1222.78 ± 2 | 1.47374 ± 0.002 | 1632.4 ± 1.6
328.15 K | 1216.16 ± 2 | 1.47112 ± 0.002 | 1608.9 ± 1.6

CCOS(=O)(=O)[O-].CCn1cc[n+](C)c1 [1-ethyl-3-methylimidazolium ethyl sulfate]
Conditions | mass density, [1] [kg/m3] | refractive index, [2] | speed of sound, [1] [m/s]
298.15 K | 1236.38 ± 2 | 1.47907 ± 0.002 | 1680.8 ± 1.6
308.15 K | 1229.49 ± 2 | 1.47645 ± 0.002 | 1656.4 ± 1.6
318.15 K | 1222.78 ± 2 | 1.47374 ± 0.002 | 1632.4 ± 1.6
328.15 K | 1216.16 ± 2 | 1.47112 ± 0.002 | 1608.9 ± 1.6

Source: the NIST ThermoML archive (doi:10.1016/j.jct.2016.03.028)
